Legend:
[1] = maximum electric shock test (MES), protection against tonic extensor cramp; type: in vivo, mice
[2] = prolongation of sodium hexobarbitone narcosis; type: in vivo, mice; details: for ED (200%): Mus musculus, po, 1 h, mice, sodium hexobarbitone 70 mg/kg i.v., 60 minutes after p.o. administration, extension of the narcosis period to 200%, read-out: Prolongation of narcosis ED200; for effectiveness in prolonging sleep compared with known hypnotics and tranquillizers: versus e.g. chlorzoxazone and meprobamate
in vivo = details: mouse, po
[3] = paralysis: loss of the postural and balancing reflexes (lying down); type: in vivo, mice; details: for ED50: Mus musculus, po, read-out: Paralysis ED50; for effectiveness in relaxing the muscle system compared with known hypnotics and tranquillizers: versus e.g. chlorzoxazone and meprobamate
[4] = minimum pentetrazole shock test (min PS), protection against clonic cramp; type: in vivo, mice; details: Mus musculus, po, 1 h, read-out: Anticonvulsive activity Min PS ED50;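 further: albino NMRI mice, oral dosing, clonic seizures provoked 60 min later by subcutaneous pentetrazole 70 mg/kg, ED50 is the dose protecting half of animals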
[5] = administration of a tablet to a human suffering from motor restlessness, with electroencephalogram; type: in vivo; details: 50 mg
Method: A tablet produced in accordance with Example 75 consisting of 50 mg. of the active compound according to Example 43 and the equivalent amount of the other ingredients was administered to a human suffering from motor restlessness.

[6] = Mus musculus, po, 1 h; read-out: Anticonvulsive activity MES ED50
[7] = Mus musculus, po, 1 h, read-out: Anticonvulsive activity MES ED50
[8] = MES and min PS test models; versus trimethadione and dipropyl acetate
[9] = mice, p.o., lying down in 50% of the animals
[10] = mice, 70 mg/kg pentetrazole s.c., 60 minutes after p.o. administration, protection in 50% of the animals

SMILES | ED50 [1, 6] | ED (200%) [2] | LD50 at 168 h (in vivo) | ED50 [1, 7] | ED50 [3] | ED50 [4] | anticonvulsive effect compared with conventional antiepileptics [1, 8] | ED50 [3, 9] | ED50 [4, 10] | effectiveness in relaxing the muscle system compared with known hypnotics and tranquillizers [3] | effectiveness in prolonging sleep compared with known hypnotics and tranquillizers [2] | electroencephalogram findings [5] | indications of a shallow sleep phase in the electroencephalogram ([5]; 5 hours after administration) | effect reported by the patient ([5]; within a period of several minutes)
O=C1NC(=O)C(c2ccccc2)(c2ccccc2)N1 [Diphenylhydantoin, reference compound] | 10 mg/kg | 50 mg/kg |  |  |  |  |  |  |  |  |  |  |  | 
CCCC(CCC)C(=O)O [Dipropylacetate, reference compound] |  |  | > 1000 mg/kg | 185 mg/kg | 1000 mg/kg | 450 mg/kg |  |  |  |  |  |  |  | 
O=C1NC(C(O)c2ccc(Cl)cc2)CO1 (stereo not drawn) [Example 4, 4-(α-Hydroxy-p-chlorobenzyl)-oxazolidin-2-one] | 125 mg/kg | 160 mg/kg | > 1000 mg/kg |  |  |  | superior | > 1000 mg/kg | 140 mg/kg |  |  |  |  | 
CC(O)C1NC(=O)OC1c1ccccc1 (stereo not shown) [Example 5, 4-[1-(1-Hydroxyethyl)]-5-phenyl oxazolidin-2-one] | 75 mg/kg | 510 mg/kg | > 1000 mg/kg |  |  |  | superior | > 1000 mg/kg | 150 mg/kg |  |  |  |  | 
CC1(CO)NC(=O)OC1(C)c1ccccc1 (stereo not shown) [Example 6] | 165 mg/kg | 1000 mg/kg | > 100 mg/kg |  |  |  |  | 1000 mg/kg | > 464 mg/kg |  |  |  |  | 
CCC(O)(c1ccccc1)C1NC(=O)OC1C (stereo not shown) [Example 18, 4-[-1-(1-Hydroxy-1-phenyl)-propyl]-5-methyl oxazolidin-2-one] | 200 mg/kg | 450 mg/kg | > 1000 mg/kg |  |  |  |  | > 1000 mg/kg | 200 mg/kg |  |  |  |  | 
C=CCC(O)(CC=C)C1NC(=O)OC1C (stereo not shown) [Example 34] | 150 mg/kg | 90 mg/kg | > 1000 mg/kg |  |  |  |  | 1000 mg/kg | > 464 mg/kg |  |  |  |  | 
CC(C)(O)C1NC(=O)OC1c1ccccc1 (stereo not shown) [Example 37] | 59 mg/kg | 650 mg/kg | > 1000 mg/kg |  |  |  | superior | 1000 mg/kg | 130 mg/kg |  |  |  |  | 
CN1C(=O)OC(c2ccccc2)C1C(C)(C)O (stereo not shown) [Example 38] | 165 mg/kg | 115 mg/kg | > 1000 mg/kg |  |  |  |  | 464 mg/kg | 640 mg/kg | distinctly more effective | distinctly more effective |  |  | 
C=CCN1C(=O)OC(c2ccccc2)C1C(C)(C)O (stereo not shown) [Example 39] | 145 mg/kg | 130 mg/kg | 1000 mg/kg |  |  |  |  | > 1000 mg/kg | > 464 mg/kg |  |  |  |  | 
CCC(O)(CC)C1NC(=O)OC1c1ccccc1 (stereo not shown) [Example 40] | 75 mg/kg | 165 mg/kg | > 1000 mg/kg |  |  |  |  | 1000 mg/kg | 430 mg/kg |  |  |  |  | 
CCCC(O)(CCC)C1NC(=O)OC1c1ccccc1 (stereo not shown) [Example 41] | 147 mg/kg | 65 mg/kg | > 1000 mg/kg |  |  |  |  | > 1000 mg/kg | > 464 mg/kg |  |  |  |  | 
C=CCC(O)(CC=C)C1NC(=O)OC1c1ccccc1 (stereo not shown) [Example 43] | 25 mg/kg | 15 mg/kg | 1000 mg/kg |  |  |  |  | 225 mg/kg | > 464 mg/kg | distinctly more effective | distinctly more effective | characteristic signs of a sedation with a decrease of effectiveness in the alpha and beta band and a change of the range of main activity to the lower frequency range | clearly increased | muscle relaxing, tiring and ataraktic sedation
CCCC(O)(CCC)C1COC(=O)N1 (stereo not shown) [Example 45] | 120 mg/kg | 210 mg/kg | > 1000 mg/kg |  |  |  |  | 1000 mg/kg | 430 mg/kg |  |  |  |  | 
O=C1NC(C(O)(c2ccccc2)c2cccc(Cl)c2)CO1 (stereo not shown) [Example 49] | 200 mg/kg | 90 mg/kg | > 1000 mg/kg |  |  |  |  | > 1000 mg/kg | > 464 mg/kg |  |  |  |  | 
CCC(O)(c1ccccc1)C1COC(=O)N1 (stereo not shown) [Example 54] | 115 mg/kg | 50 mg/kg | > 1000 mg/kg |  |  |  | superior | 800 mg/kg | 85 mg/kg | distinctly more effective | distinctly more effective |  |  | 
C=CCC(O)(c1ccccc1)C1COC(=O)N1 (stereo not shown) [Example 58] | 200 mg/kg | 300 mg/kg | > 1000 mg/kg |  |  |  |  | 1000 mg/kg | 300 mg/kg |  |  |  |  | 
CC(O)(c1ccc(Cl)cc1)C1COC(=O)N1 (stereo not shown) [Example 59] | 165 mg/kg | 110 mg/kg | > 1000 mg/kg |  |  |  |  | > 1000 mg/kg | > 464 mg/kg |  |  |  |  | 
CCC(O)(c1ccc(Cl)cc1)C1COC(=O)N1 (stereo not shown) [Example 60] | 175 mg/kg | 70 mg/kg | > 1000 mg/kg |  |  |  |  | 1000 mg/kg | > 464 mg/kg |  |  |  |  | 
CCC(O)(c1ccccc1)C1COC(=O)N1C (stereo not shown) [Example 64] | 300 mg/kg | 110 mg/kg | 800 mg/kg |  |  |  |  | 650 mg/kg | > 464 mg/kg | distinctly more effective | distinctly more effective |  |  | 
CCCC(O)(c1ccccc1)C1COC(=O)N1 (stereo not shown) [Example 65] | 170 mg/kg | 155 mg/kg | > 1000 mg/kg |  |  |  |  | > 1000 mg/kg | 175 mg/kg |  |  |  |  | 
CC1(c2ccccc2)OC(=O)NC1CCl (stereo not shown) [Example 67, 4-Chloromethyl-5-methyl-5-phenyl oxazolidin-2-one] |  |  | > 1000 mg/kg | 93 mg/kg | 1000 mg/kg | 55 mg/kg | superior |  |  |  |  |  |  | 
O=C1NC(CCl)C(c2ccccc2)O1 (stereo not shown) [Example 72] |  |  | > 1000 mg/kg | 75 mg/kg | > 1000 mg/kg | 540 mg/kg |  |  |  |  |  |  |  | 
O=C1NC(CBr)C(c2ccccc2)O1 (stereo not shown) [Example 73] |  |  | > 1000 mg/kg | 65 mg/kg | > 1000 mg/kg | 430 mg/kg |  |  |  |  |  |  |  | 
CCCC(C)(COC(N)=O)COC(N)=O [Meprobamate, reference compound] |  |  | 1000 mg/kg | 115 mg/kg | 800 mg/kg | 150 mg/kg |  |  |  |  |  |  |  | 
CCC1(c2ccccc2)C(=O)NC(=O)NC1=O [Na-phenocarbital, reference compound] |  |  | 320 mg/kg | 11 mg/kg | 150 mg/kg | 30 mg/kg |  |  |  |  |  |  |  | 
CN1C(=O)OC(C)(C)C1=O [Trimethadione, reference compound] | 450 mg/kg | 660 mg/kg | > 1000 mg/kg |  |  |  |  | > 1000 mg/kg | 240 mg/kg |  |  |  |  | 

Reference: patent US4139538A, “Oxazolidinones as therapeutic agents” (priority 1975, dated 1979)
